Experimental data: the NIST ThermoML archive (doi:10.1016/j.jct.2004.11.020)

Experiments:
[1] = xn = mol fraction of the nth substance listed; details: 308.15 K, 101 kPa, Liquid; for speed of sound: Pulse-echo method
[2] = 308.15 K, 101.33 kPa, Liquid; for speed of sound: Pulse-echo method

CC(O)CCO (stereo not drawn) [1,3-butanediol] + O=C1CCCN1
[1]
Details	excess molar volume [m3/mol]	speed of sound [m/s]	viscosity [mPa·s]
x2 = 0.0122	2e-09	–	–
x2 = 0.0261	–	1498	51.57
x2 = 0.0368	8e-09	–	–
x2 = 0.0526	–	1500.5	46.61
x2 = 0.055	2.3e-08	–	–
x2 = 0.0755	–	1502.8	44.87
x2 = 0.0812	3.4e-08	–	–
x2 = 0.0939	4.6e-08	–	–
x2 = 0.1	–	1504.8	40.88
x2 = 0.1079	5.5e-08	–	–
x2 = 0.1227	5.9e-08	–	–
x2 = 0.1447	6.3e-08	–	–
x2 = 0.1543	–	1509.2	36.15
x2 = 0.1594	6.7e-08	–	–
x2 = 0.1843	8.2e-08	–	–
x2 = 0.2041	–	1513.2	31.48
x2 = 0.2174	9.5e-08	–	–
x2 = 0.2396	1.02e-07	–	–
x2 = 0.2586	1.16e-07	–	–
x2 = 0.2859	1.25e-07	–	–
x2 = 0.3003	–	1521.1	26.19
x2 = 0.3054	1.31e-07	–	–
x2 = 0.3436	1.38e-07	–	–
x2 = 0.3606	1.42e-07	–	–
x2 = 0.3817	1.46e-07	–	–
x2 = 0.3932	–	1529.1	21.54
x2 = 0.4337	1.48e-07	–	–
x2 = 0.4571	1.49e-07	–	–
x2 = 0.4815	1.49e-07	–	–
x2 = 0.4985	–	1539	17.82
x2 = 0.519	1.48e-07	–	–
x2 = 0.5798	1.45e-07	–	–
x2 = 0.5931	1.41e-07	–	–
x2 = 0.5936	1.39e-07	–	–
x2 = 0.6015	1.38e-07	–	–
x2 = 0.603	–	1549	15.46
x2 = 0.6087	1.37e-07	–	–
x2 = 0.6204	1.33e-07	–	–
x2 = 0.6319	1.32e-07	–	–
x2 = 0.6419	1.32e-07	–	–
x2 = 0.6744	1.28e-07	–	–
x2 = 0.6903	1.22e-07	–	–
x2 = 0.6985	–	1559.4	13.17
x2 = 0.705	1.2e-07	–	–
x2 = 0.7245	1.15e-07	–	–
x2 = 0.7372	1.15e-07	–	–
x2 = 0.7679	1.07e-07	–	–
x2 = 0.7781	9.8e-08	–	–
x2 = 0.7935	–	1570.9	11.85
x2 = 0.7976	9.2e-08	–	–
x2 = 0.8132	8.3e-08	–	–
x2 = 0.8358	7.3e-08	–	–
x2 = 0.839	–	1576.8	10.81
x2 = 0.8994	–	1585.1	9.984
x2 = 0.9271	–	1589	9.739
x2 = 0.947	–	1592.3	9.44
x2 = 0.9774	–	1596.3	9.15

CCC(O)CO (stereo not drawn) [1,2-butanediol]
[2]
Details	mass density [kg/m3]	speed of sound [m/s]	viscosity [mPa·s]
–	988.25	1422.6	30.29

O=C1CCCN1 [2-pyrrolidinone]
[2]
Details	mass density [kg/m3]	speed of sound [m/s]	viscosity [mPa·s]
–	1097.14	1600	8.922

CC(O)C(C)O (stereo not drawn) [2,3-butanediol]
[2]
Details	mass density [kg/m3]	speed of sound [m/s]	viscosity [mPa·s]
–	990.72	1456.6	51.38

OCCCCO [1,4-butanediol]
[2]
Details	mass density [kg/m3]	speed of sound [m/s]	viscosity [mPa·s]
–	1003.95	1577.8	47.38

CC(O)C(C)O (stereo not drawn) [2,3-butanediol] + O=C1CCCN1
[1]
Details	excess molar volume [m3/mol]	speed of sound [m/s]	viscosity [mPa·s]
x2 = 0.0199	1.9e-08	–	–
x2 = 0.0255	–	1458.7	46.85
x2 = 0.0339	3.3e-08	–	–
x2 = 0.0483	4.5e-08	–	–
x2 = 0.0507	–	1460.7	41.26
x2 = 0.0634	5.4e-08	–	–
x2 = 0.0737	6e-08	–	–
x2 = 0.0765	–	1463	39.43
x2 = 0.0885	7.5e-08	–	–
x2 = 0.1001	–	1466.3	37.32
x2 = 0.1008	8.2e-08	–	–
x2 = 0.1118	8.7e-08	–	–
x2 = 0.118	9.3e-08	–	–
x2 = 0.1313	9.9e-08	–	–
x2 = 0.1447	1.06e-07	–	–
x2 = 0.1489	–	1470.5	32.26
x2 = 0.1571	1.12e-07	–	–
x2 = 0.1702	1.17e-07	–	–
x2 = 0.185	1.29e-07	–	–
x2 = 0.1941	–	1475.2	28.87
x2 = 0.2191	1.39e-07	–	–
x2 = 0.2418	1.48e-07	–	–
x2 = 0.2675	1.54e-07	–	–
x2 = 0.2854	1.59e-07	–	–
x2 = 0.2955	–	1488.2	23.79
x2 = 0.3058	1.63e-07	–	–
x2 = 0.3226	1.67e-07	–	–
x2 = 0.3312	1.68e-07	–	–
x2 = 0.3459	1.71e-07	–	–
x2 = 0.3589	1.72e-07	–	–
x2 = 0.383	1.72e-07	–	–
x2 = 0.3899	–	1500.7	19.82
x2 = 0.3973	1.72e-07	–	–
x2 = 0.4043	1.73e-07	–	–
x2 = 0.4156	1.72e-07	–	–
x2 = 0.4506	1.71e-07	–	–
x2 = 0.4667	1.7e-07	–	–
x2 = 0.4926	1.69e-07	–	–
x2 = 0.5097	1.7e-07	–	–
x2 = 0.5261	1.7e-07	–	–
x2 = 0.5294	–	1520.3	16.06
x2 = 0.5431	1.67e-07	–	–
x2 = 0.5651	1.68e-07	–	–
x2 = 0.5844	1.65e-07	–	–
x2 = 0.5898	–	1529.2	14.65
x2 = 0.6052	1.6e-07	–	–
x2 = 0.6266	1.58e-07	–	–
x2 = 0.6501	1.52e-07	–	–
x2 = 0.6693	1.51e-07	–	–
x2 = 0.6894	1.45e-07	–	–
x2 = 0.6978	–	1546.9	12.54
x2 = 0.8089	–	1565.1	11.22
x2 = 0.8587	–	1573.7	10.53
x2 = 0.9067	–	1582	9.623
x2 = 0.9497	–	1590.4	9.337
x2 = 0.9702	–	1594.2	9.114
